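Where inhibition never reached the appropriate level, the endpoint shown equals the highest concentration tested. Otherwise, values were interpolated linearly from a five-concentration, 48-hour dose response in 96-well plates. GI50: concentration for 50% inhibition of growth.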 Activity calls are given as the source filed them. Cut-off read from the data, not from the text of the source: active = GI50 up to about 1.1 µM and inactive = higher.
Key:
Assay in all cases: DTP human tumour cell line panel, 48 h
OVCAR-5 = tested on: OVCAR-5
SF-268 = tested on: SF-268
SW-620 = tested on: SW-620
SK-MEL-2 = tested on: SK-MEL-2
786-0 = tested on: 786-0
SK-OV-3 = tested on: SK-OV-3
M14 = tested on: M14
HT-29 = tested on: HT-29
T47D = tested on: T47D
EKVX = tested on: EKVX
OVCAR-3 = tested on: OVCAR-3
HOP-92 = tested on: HOP-92
A498 = tested on: A498
MOLT-4 = tested on: MOLT-4
UACC-257 = tested on: UACC-257
SNB-75 = tested on: SNB-75
NCI/ADR-RES = tested on: NCI/ADR-RES
TK-10 = tested on: TK-10
MDA-N = tested on: MDA-N
RXF 393 = tested on: RXF 393
LOX IMVI = tested on: LOX IMVI
NCI-H226 = tested on: NCI-H226
NCI-H460 = tested on: NCI-H460
HOP-62 = tested on: HOP-62
CCRF-CEM = tested on: CCRF-CEM
SK-MEL-28 = tested on: SK-MEL-28
HCT-116 = tested on: HCT-116
K562 = tested on: K562
MCF7 = tested on: MCF7
MDA-MB-435 = tested on: MDA-MB-435
A549 = tested on: A549
KM12 = tested on: KM12
NCI-H23 = tested on: NCI-H23
OVCAR-4 = tested on: OVCAR-4
ACHN = tested on: ACHN
NCI-H522 = tested on: NCI-H522
DU-145 = tested on: DU-145
PC-3 = tested on: PC-3
SF-539 = tested on: SF-539
IGROV-1 = tested on: IGROV-1
SF-295 = tested on: SF-295
SNB-19 = tested on: SNB-19
HCC 2998 = tested on: HCC 2998
RPMI-8226 = tested on: RPMI-8226
U-251 = tested on: U-251
SN12C = tested on: SN12C
HCT-15 = tested on: HCT-15
OVCAR-8 = tested on: OVCAR-8
MDA-MB-231 = tested on: MDA-MB-231
Hs-578T = tested on: Hs-578T
COLO 205 = tested on: COLO 205
HL-60 = tested on: HL-60
UACC-62 = tested on: UACC-62
UO-31 = tested on: UO-31
SK-MEL-5 = tested on: SK-MEL-5
Malme-3M = tested on: Malme-3M
CAKI-1 = tested on: CAKI-1
SR = tested on: SR

CC(=O)Oc1c(C)cc2c(c1C)C(C)CN2C(C)=O (centres undefined)
GI50 (OVCAR-5): > 100 µM (inactive)
GI50 (SF-268): > 100 µM (inactive)
GI50 (SW-620): > 100 µM (inactive)
GI50 (SK-MEL-2): > 100 µM (inactive)
GI50 (786-0): > 100 µM (inactive)
GI50 (SK-OV-3): > 100 µM (inactive)
GI50 (M14): > 100 µM (inactive)
GI50 (HT-29): > 100 µM (inactive)
GI50 (T47D): > 100 µM (inactive)
GI50 (EKVX): > 100 µM (inactive)
GI50 (OVCAR-3): > 100 µM (inactive)
GI50 (HOP-92): > 100 µM (inactive)
GI50 (A498): > 100 µM (inactive)
GI50 (MOLT-4): > 100 µM (inactive)
GI50 (UACC-257): > 100 µM (inactive)
GI50 (SNB-75): 94.2 µM (inactive)
GI50 (NCI/ADR-RES): > 100 µM (inactive)
GI50 (TK-10): > 100 µM (inactive)
GI50 (MDA-N): > 100 µM (inactive)
GI50 (RXF 393): > 100 µM (inactive)
GI50 (LOX IMVI): > 100 µM (inactive)
GI50 (NCI-H226): > 100 µM (inactive)
GI50 (NCI-H460): > 100 µM (inactive)
GI50 (HOP-62): > 100 µM (inactive)
GI50 (CCRF-CEM): > 100 µM (inactive)
GI50 (SK-MEL-28): > 100 µM (inactive)
GI50 (HCT-116): > 100 µM (inactive)
GI50 (K562): > 100 µM (inactive)
GI50 (MCF7): > 100 µM (inactive)
GI50 (MDA-MB-435): > 100 µM (inactive)
GI50 (A549): > 100 µM (inactive)
GI50 (KM12): > 100 µM (inactive)
GI50 (NCI-H23): > 100 µM (inactive)
GI50 (OVCAR-4): > 100 µM (inactive)
GI50 (ACHN): > 100 µM (inactive)
GI50 (NCI-H522): > 100 µM (inactive)
GI50 (DU-145): > 100 µM (inactive)
GI50 (PC-3): > 100 µM (inactive)
GI50 (SF-539): > 100 µM (inactive)
GI50 (IGROV-1): > 100 µM (inactive)
GI50 (SF-295): > 100 µM (inactive)
GI50 (SNB-19): > 100 µM (inactive)
GI50 (HCC 2998): > 100 µM (inactive)
GI50 (RPMI-8226): > 100 µM (inactive)
GI50 (U-251): > 100 µM (inactive)
GI50 (SN12C): > 100 µM (inactive)
GI50 (HCT-15): > 100 µM
GI50 (OVCAR-8): > 100 µM (inactive)
GI50 (MDA-MB-231): > 100 µM (inactive)
GI50 (Hs-578T): > 100 µM (inactive)
GI50 (COLO 205): > 100 µM (inactive)
GI50 (HL-60): > 100 µM (inactive)
GI50 (UACC-62): > 100 µM (inactive)
GI50 (UO-31): > 100 µM (inactive)
GI50 (SK-MEL-5): > 100 µM (inactive)

Oc1ccc[n+](Cc2ccccc2)c1
GI50 (OVCAR-5): > 100 µM (inactive)
GI50 (SF-268): > 100 µM (inactive)
GI50 (SK-MEL-2): > 100 µM (inactive)
GI50 (786-0): > 100 µM (inactive)
GI50 (SK-OV-3): > 100 µM (inactive)
GI50 (M14): > 100 µM (inactive)
GI50 (HT-29): > 100 µM (inactive)
GI50 (T47D): > 100 µM (inactive)
GI50 (OVCAR-3): > 100 µM (inactive)
GI50 (A498): > 100 µM (inactive)
GI50 (MOLT-4): > 100 µM (inactive)
GI50 (UACC-257): > 100 µM (inactive)
GI50 (SNB-75): > 100 µM (inactive)
GI50 (NCI/ADR-RES): > 100 µM (inactive)
GI50 (TK-10): > 100 µM (inactive)
GI50 (MDA-N): > 100 µM (inactive)
GI50 (RXF 393): > 100 µM (inactive)
GI50 (LOX IMVI): > 100 µM (inactive)
GI50 (NCI-H226): > 100 µM (inactive)
GI50 (NCI-H460): > 100 µM (inactive)
GI50 (HOP-62): > 100 µM (inactive)
GI50 (CCRF-CEM): > 100 µM (inactive)
GI50 (SK-MEL-28): > 100 µM (inactive)
GI50 (HCT-116): > 100 µM (inactive)
GI50 (K562): > 100 µM (inactive)
GI50 (MCF7): > 100 µM (inactive)
GI50 (MDA-MB-435): > 100 µM (inactive)
GI50 (A549): > 100 µM (inactive)
GI50 (KM12): > 100 µM (inactive)
GI50 (NCI-H23): > 100 µM (inactive)
GI50 (ACHN): > 100 µM (inactive)
GI50 (NCI-H522): > 100 µM (inactive)
GI50 (DU-145): > 100 µM (inactive)
GI50 (Malme-3M): > 100 µM (inactive)
GI50 (PC-3): > 100 µM (inactive)
GI50 (SF-539): > 100 µM (inactive)
GI50 (SF-295): > 100 µM (inactive)
GI50 (SNB-19): > 100 µM (inactive)
GI50 (HCC 2998): > 100 µM (inactive)
GI50 (RPMI-8226): > 100 µM (inactive)
GI50 (U-251): > 100 µM (inactive)
GI50 (SN12C): > 100 µM (inactive)
GI50 (HCT-15): > 100 µM
GI50 (OVCAR-8): > 100 µM (inactive)
GI50 (MDA-MB-231): > 100 µM (inactive)
GI50 (Hs-578T): > 100 µM (inactive)
GI50 (COLO 205): > 100 µM (inactive)
GI50 (HL-60): > 100 µM (inactive)
GI50 (UACC-62): > 100 µM (inactive)
GI50 (UO-31): > 100 µM (inactive)
GI50 (CAKI-1): > 100 µM (inactive)
GI50 (SK-MEL-5): > 100 µM (inactive)

COC(=O)C1=C(C)NC(=O)N2[C@@H](CCOCc3ccccc3)CC[C@@H]12
GI50 (OVCAR-5): > 50 µM (inactive)
GI50 (SF-268): > 50 µM (inactive)
GI50 (SW-620): > 50 µM (inactive)
GI50 (SK-MEL-2): > 50 µM (inactive)
GI50 (786-0): > 50 µM (inactive)
GI50 (SK-OV-3): > 50 µM (inactive)
GI50 (SR): > 50 µM (inactive)
GI50 (M14): > 50 µM (inactive)
GI50 (HT-29): > 50 µM (inactive)
GI50 (T47D): 12.4 µM (inactive)
GI50 (EKVX): > 50 µM (inactive)
GI50 (OVCAR-3): > 50 µM (inactive)
GI50 (HOP-92): > 50 µM (inactive)
GI50 (A498): > 50 µM (inactive)
GI50 (MOLT-4): 47.9 µM (inactive)
GI50 (UACC-257): > 50 µM (inactive)
GI50 (SNB-75): 25 µM (inactive)
GI50 (NCI/ADR-RES): > 50 µM (inactive)
GI50 (TK-10): > 50 µM (inactive)
GI50 (MDA-N): > 50 µM (inactive)
GI50 (RXF 393): 13.1 µM (inactive)
GI50 (LOX IMVI): > 50 µM (inactive)
GI50 (NCI-H226): > 50 µM (inactive)
GI50 (NCI-H460): > 50 µM (inactive)
GI50 (HOP-62): > 50 µM (inactive)
GI50 (CCRF-CEM): > 50 µM (inactive)
GI50 (SK-MEL-28): > 50 µM (inactive)
GI50 (K562): > 50 µM (inactive)
GI50 (MCF7): > 50 µM (inactive)
GI50 (MDA-MB-435): > 50 µM (inactive)
GI50 (A549): > 50 µM (inactive)
GI50 (KM12): > 50 µM (inactive)
GI50 (NCI-H23): > 50 µM (inactive)
GI50 (OVCAR-4): > 50 µM (inactive)
GI50 (ACHN): > 50 µM (inactive)
GI50 (NCI-H522): > 50 µM (inactive)
GI50 (DU-145): > 50 µM (inactive)
GI50 (Malme-3M): > 50 µM (inactive)
GI50 (PC-3): > 50 µM (inactive)
GI50 (SF-539): > 50 µM (inactive)
GI50 (IGROV-1): > 50 µM (inactive)
GI50 (SF-295): > 50 µM (inactive)
GI50 (SNB-19): > 50 µM (inactive)
GI50 (HCC 2998): > 50 µM (inactive)
GI50 (RPMI-8226): > 50 µM (inactive)
GI50 (U-251): > 50 µM (inactive)
GI50 (HCT-15): > 50 µM
GI50 (OVCAR-8): > 50 µM (inactive)
GI50 (MDA-MB-231): > 50 µM (inactive)
GI50 (Hs-578T): > 50 µM (inactive)
GI50 (COLO 205): > 50 µM (inactive)
GI50 (HL-60): > 50 µM (inactive)
GI50 (UACC-62): > 50 µM (inactive)
GI50 (UO-31): > 50 µM (inactive)
GI50 (CAKI-1): > 50 µM (inactive)
GI50 (SK-MEL-5): > 50 µM (inactive)

CNc1ccc(C(=O)CC(O)CCC(C)C2OC(=O)CC(O)CC(=O)CC(O)CC(O)CC(O)CC(O)CC3(O)CC(O)C(C(=O)NCCN4CCCCC4)C(CC(OC4OC(C)C(O)C(N)C4O)\C=C/C=C\C=C/C=C/C=C/C=C\C=C/C2C)O3)cc1 (centres undefined)
GI50 (SR): 0.272 µM (active)
GI50 (A498): 0.288 µM (active)
GI50 (K562): 2.07 µM (inactive)
GI50 (MDA-MB-435): 1.01 µM (active)
GI50 (KM12): 1.82 µM (inactive)
GI50 (HL-60): 3.88 µM (inactive)
